According to PubChem BioAssay (NCI):
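Growth conditions: 96-well plates. Treatment: test compound, 48 hours, 5 concentrations. Analysis: linear interpolation between bracketing concentrations; unreached endpoints set to highest concentration. Abbreviation: GI50, concentration required for 50% inhibition of growth. TGI is the concentration that stops growth completely.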

Legend:
Test in all cases: NCI anticancer screen, dose series, 48 h
T-47D breast = test system: T-47D breast
NCI/ADR-RES ovarian = test system: NCI/ADR-RES ovarian
TK-10 renal = test system: TK-10 renal
SR leukemia = test system: SR leukemia
NCI-H522 lung = test system: NCI-H522 lung
EKVX NSCLC = test system: EKVX NSCLC
MALME-3M melanoma = test system: MALME-3M melanoma
SN12C renal = test system: SN12C renal
SK-MEL-28 melanoma = test system: SK-MEL-28 melanoma
NCI-H226 lung = test system: NCI-H226 lung

| SMILES | GI50 (T-47D breast) [µM] | TGI (T-47D breast) [µM] | GI50 (NCI/ADR-RES ovarian) [nM] | TGI (NCI/ADR-RES ovarian) [µM] | GI50 (TK-10 renal) [µM] | TGI (TK-10 renal) [µM] | GI50 (SR leukemia) [nM] | TGI (SR leukemia) [µM] | GI50 (NCI-H522 lung) [nM] | TGI (NCI-H522 lung) [µM] | GI50 (EKVX NSCLC) [µM] | TGI (EKVX NSCLC) [µM] | GI50 (MALME-3M melanoma) [µM] | TGI (MALME-3M melanoma) [µM] | GI50 (SN12C renal) [µM] | TGI (SN12C renal) [µM] | GI50 (SK-MEL-28 melanoma) [µM] | TGI (SK-MEL-28 melanoma) [µM] | GI50 (NCI-H226 lung) [µM] | TGI (NCI-H226 lung) [µM] |
| --- | --- | --- | --- | --- | --- | --- | --- | --- | --- | --- | --- | --- | --- | --- | --- | --- | --- | --- | --- | --- |
| C=C(c1ccc(OC)c(/C=C/C(=O)c2ccc3c(c2)OCO3)c1)c1cc(OC)c(OC)c(OC)c1 | 2.66 | > 100 | 2770 | 37.2 | 4.79 | > 100 | 907 | > 100 | 1550 | 4.78 | 4.67 | > 100 | > 100 | > 100 | 3.84 | > 100 |  |  |  |  |
| Fc1ccc(-c2c(-c3ccncc3)nc3n2CCS3)cc1 | > 25 | > 25 | > 25000 | > 25 | > 25 | > 25 | > 25000 | > 25 | > 25000 | > 25 | > 25 | > 25 | > 25 | > 25 | > 25 | > 25 | > 25 | > 25 | > 25 | > 25 |
| Cc1nc2sccn2c1C(=O)NN |  |  |  |  |  | > 100 |  | > 100 |  | > 100 |  | > 100 |  | > 100 |  | > 100 |  | > 100 |  | > 100 |
| CC(C)C[C@H](NC(=O)CNC(=O)c1cc(Cl)ccc1Cl)B(O)O | < 0.0156 | 0.0602 | 183 | > 100 | < 0.0138 | 0.0517 | < 15.2 | 0.385 | 16.4 | 0.0414 |  |  | < 0.0115 | 0.035 | 0.0442 | 0.39 | < 0.0175 | 0.174 | 0.416 | 5.09 |
| Cc1nc([N+](=O)[O-])cn1-c1nc2ccccn2c1[N+](=O)[O-] |  | > 100 |  | > 100 |  | > 100 |  | > 100 |  | > 100 |  | > 100 |  | > 100 |  | > 100 |  | > 100 |  | > 100 |
| O=C(O)c1cc(-c2ccc3cc4c(cc3c2)OCO4)nc2ccccc12 |  | > 100 |  | > 100 |  | > 100 |  | 88.9 |  | > 100 |  | 83 |  | > 100 |  | > 100 |  | > 100 |  | > 100 |
| Cc1onc(-c2ccccc2)c1C(=O)N/N=C/c1cc(Cl)cc(Cl)c1O | 6.31 | 57.8 | 3760 | 34.3 | 5.01 | > 100 | 3740 | 25.1 | 3670 | 33.6 |  |  | 4.03 | 27.4 | 4.58 | 60.5 | 6.51 | > 100 | 8.47 | 72.7 |
| O=C(CCC(=O)Nc1ccc(Cl)c(Cl)c1)Cc1nc2ccccc2o1 |  |  |  |  |  | > 100 |  | > 100 |  | > 100 |  | > 100 |  | > 100 |  | > 100 |  | > 100 |  | > 100 |
